Reference: paper PMC9437094, “Docking study, molecular dynamic, synthesis, anti-α-glucosidase assessment, and ADMET prediction of new benzimidazole-Schiff base derivatives” (Scientific Reports, 2022)
Read-outs that look alike come from different tables or passages of the source.

Key:
[1] = target: α-glucosidase from Saccharomyces cerevisiae (Saccharomyces cerevisiae, UniProt P53341); test: biochemical; format: biochemical; conditions: for IC50: substrate p-nitrophenyl glucopyranoside, 37 °C
Experimental: Next, absorbance was measured at 405 nm by spectrophotometer (Gen5, Power wave xs2, BioTek, USA), and IC50 value for each tested compound was calculated by taking advantage of the nonlinear regression curve (logit method).

HDF = test: MTT cytotoxicity assay on HDF; format: cell-based; conditions: HDF human normal cell line, at 200 μM
MCF-7 = test: MTT cytotoxicity assay on MCF-7; format: cell-based; conditions: MCF-7 human cancer cell line, at 200 μM
α-glucosidase = α-glucosidase (Saccharomyces cerevisiae, UniProt P53341); test: Enzyme kinetic study (Lineweaver–Burk and secondary plot); format: biochemical
α-glucosidase, sequence (P53341 whole entry): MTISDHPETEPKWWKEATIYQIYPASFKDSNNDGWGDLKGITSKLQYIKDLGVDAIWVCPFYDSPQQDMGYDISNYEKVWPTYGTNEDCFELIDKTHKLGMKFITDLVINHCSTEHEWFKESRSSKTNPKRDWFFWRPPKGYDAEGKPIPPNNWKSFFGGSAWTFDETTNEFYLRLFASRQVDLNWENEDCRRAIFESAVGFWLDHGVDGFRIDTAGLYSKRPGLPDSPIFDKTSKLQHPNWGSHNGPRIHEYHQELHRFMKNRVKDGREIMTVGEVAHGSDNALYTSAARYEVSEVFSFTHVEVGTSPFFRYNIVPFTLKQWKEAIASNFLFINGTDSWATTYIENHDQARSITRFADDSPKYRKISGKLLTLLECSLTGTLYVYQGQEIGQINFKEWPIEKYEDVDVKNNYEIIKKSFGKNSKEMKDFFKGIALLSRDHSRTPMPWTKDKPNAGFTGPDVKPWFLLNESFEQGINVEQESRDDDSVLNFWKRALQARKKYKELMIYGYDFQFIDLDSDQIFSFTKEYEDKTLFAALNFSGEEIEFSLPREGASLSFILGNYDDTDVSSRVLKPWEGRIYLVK
Experimental: Furthermore, the plot of the Km versus different concentrations of compound 8p gave an estimate of Ki as the inhibition constant (Fig. 2b). Ki value for the latter compound was 60 µM.
A Lineweaver–Burk plot was generated to identify the type of inhibition and the Michaelis–Menten constant (Km) value was determined from plot between reciprocal of the substrate concentration (1/[S]) and reciprocal of enzyme rate (1/V) over various inhibitor concentrations. Experimental inhibitor constant (Ki) value was constructed by secondary plots of the inhibitor concentration [I] versus Km.

α-glucosidase from Saccharomyces cerevisiae, sequence (P53341 whole entry): as above

| Structure (SMILES) | IC50 ([1]; IC50, yeast α-glucosidase) [µM] | melting point [°C] | other results |
| --- | --- | --- | --- |
| COc1ccc(-c2nc3cc(C(=O)N/N=C/c4cccc(Oc5ccccc5)c4)ccc3[nH]2)cc1 [Compound 8e, (E)-2-(4-methoxyphenyl)-N'-(3-phenoxybenzylidene)-1H-benzo[d]imidazole-5-carbohydrazide] | 127 ± 6.5 | > 250 |  |
| COc1ccc(-c2nc3cc(C(=O)N/N=C/c4ccc(Cl)cc4)ccc3[nH]2)cc1 [Compound 8l, (E)-N'-(4-chlorobenzylidene)-2-(4-methoxyphenyl)-1H-benzo[d]imidazole-5-carbohydrazide] | 103 ± 5.5 | > 250 |  |
| COc1ccc(-c2nc3cc(C(=O)N/N=C/c4cccc(O)c4)ccc3[nH]2)cc1 [Compound 8f, (E)-N'-(3-hydroxybenzylidene)-2-(4-methoxyphenyl)-1H-benzo[d]imidazole-5-carbohydrazide] | 181 ± 8.5 |  |  |
| COc1ccc(-c2nc3cc(C(=O)N/N=C/c4ccc(F)cc4)ccc3[nH]2)cc1 [Compound 8j, (E)-N'-(4-fluorobenzylidene)-2-(4-methoxyphenyl)-1H-benzo[d]imidazole-5-carbohydrazide] | 84.1 ± 4.5 | > 250 |  |
| COc1ccc(-c2nc3cc(C(=O)N/N=C/c4cccc(Br)c4)ccc3[nH]2)cc1 [Compound 8m, (E)-N'-(3-bromobenzylidene)-2-(4-methoxyphenyl)-1H-benzo[d]imidazole-5-carbohydrazide] | 97 ± 4.4 | > 250 |  |
| COc1ccc(-c2nc3cc(C(=O)N/N=C/c4ccccc4F)ccc3[nH]2)cc1 [Compound 8h, (E)-N'-(2-fluorobenzylidene)-2-(4-methoxyphenyl)-1H-benzo[d]imidazole-5-carbohydrazide] | 69 ± 4 |  | cytotoxicity (MTT) (HDF): non-cytotoxic; cytotoxicity (MTT) (MCF-7): non-cytotoxic |
| COc1ccc(-c2nc3cc(C(=O)N/N=C/c4cccc(F)c4)ccc3[nH]2)cc1 [Compound 8i, (E)-N'-(3-fluorobenzylidene)-2-(4-methoxyphenyl)-1H-benzo[d]imidazole-5-carbohydrazide] | 88.1 ± 6 | > 250 |  |
| COc1ccc(/C=N/NC(=O)c2ccc3[nH]c(-c4ccc(OC)cc4)nc3c2)cc1 [Compound 8c, (E)-N'-(4-methoxybenzylidene)-2-(4-methoxyphenyl)-1H-benzo[d]imidazole-5-carbohydrazide] | 110 ± 5.5 | > 250 |  |
| COc1ccc(-c2nc3cc(C(=O)N/N=C/c4ccc(C)cc4)ccc3[nH]2)cc1 [Compound 8b, (E)-2-(4-methoxyphenyl)-N'-(4-methylbenzylidene)-1H-benzo[d]imidazole-5-carbohydrazide] | 102 ± 5.6 | > 250 |  |
| COc1ccc(-c2nc3cc(C(=O)N/N=C/c4cccs4)ccc3[nH]2)cc1 [Compound 8p, (E)-2-(4-methoxyphenyl)-N'-(thiophen-2-ylmethylene)-1H-benzo[d]imidazole-5-carbohydrazide] | 60.1 ± 3.6 | > 250 | type of inhibition (α-glucosidase; Lineweaver–Burk plot): competitive inhibitor; Ki (α-glucosidase; secondary plot of Km versus inhibitor concentration): 60 µM; cytotoxicity (MTT) (HDF): non-cytotoxic; cytotoxicity (MTT) (MCF-7): non-cytotoxic |
| COc1ccc(-c2nc3cc(C(=O)N/N=C/c4ccccc4)ccc3[nH]2)cc1 [Compound 8a, (E)-N'-benzylidene-2-(4-methoxyphenyl)-1H-benzo[d]imidazole-5-carbohydrazide] | 70.6 ± 6.8 | > 250 | cytotoxicity (MTT) (HDF): non-cytotoxic; cytotoxicity (MTT) (MCF-7): non-cytotoxic |
| COc1ccc(-c2nc3cc(C(=O)N/N=C/c4ccccc4Cl)ccc3[nH]2)cc1 [Compound 8k, (E)-N'-(2-chlorobenzylidene)-2-(4-methoxyphenyl)-1H-benzo[d]imidazole-5-carbohydrazide] | 90 ± 7.5 | > 250 |  |
| COc1ccc(-c2nc3cc(C(=O)N/N=C/c4ccc([N+](=O)[O-])cc4)ccc3[nH]2)cc1 [Compound 8n, (E)-2-(4-methoxyphenyl)-N'-(4-nitrobenzylidene)-1H-benzo[d]imidazole-5-carbohydrazide] | 112 ± 5.7 | > 250 |  |
| COc1ccc(-c2nc3cc(C(=O)N/N=C/c4cc5c(cc4[N+](=O)[O-])OCO5)ccc3[nH]2)cc1 [Compound 8o, (E)-2-(4-methoxyphenyl)-N'-((6-nitrobenzo[d][1,3]dioxol-5-yl)methylene)-1H-benzo[d]imidazole-5-carbohydrazide] | 123 ± 6.1 | > 250 |  |
| COc1ccc(-c2nc3cc(C(=O)N/N=C/c4ccc(O)c(OC)c4)ccc3[nH]2)cc1 [Compound 8g, (E)-N'-(4-hydroxy-3-methoxybenzylidene)-2-(4-methoxyphenyl)-1H-benzo[d]imidazole-5-carbohydrazide] |  | > 250 | IC50 ([1]; yeast α-glucosidase, read-out: IC50): 287 ± 7.4 µM |
| COc1ccc(-c2nc3cc(C(=O)N/N=C/c4cc(OC)c(OC)c(OC)c4)ccc3[nH]2)cc1 [Compound 8d, (E)-2-(4-methoxyphenyl)-N'-(3,4,5-trimethoxybenzylidene)-1H-benzo[d]imidazole-5-carbohydrazide] |  |  | inhibitory activity against α-glucosidase (in words) ([1]; yeast α-glucosidase): inactive |
